Bounds are passed on as bounds.

The IC50 is the concentration at which inhibition is half-maximal. In general, half-life refers to how long it takes for the measured level to halve.

Data set [1] has as its target T1, Vascular endothelial growth factor receptor 2 (Homo sapiens, UniProt P35968). Kind of data set: Inhibition of poly(Glu4-Tyr)peptide phosphorylation by recombinant VEGFR2 at 10 uM ATP and in presence of 5% mouse plasma. The format is cell-free.
The target in data set [2] is T1, Vascular endothelial growth factor receptor 2. Kind of data set: Inhibition of poly(Glu4-Tyr)peptide phosphorylation by recombinant VEGFR2 at 10 uM ATP and in presence of 100 uM glutathione.
For data set [3] the target is unchanged. Nature of the data set: Inhibition of poly(Glu4-Tyr)peptide phosphorylation by recombinant VEGFR2 at 10 uM ATP.
Data set [4] can be described thus: Half life at 1 uM in the presence of 100 uM reduced glutathione in H2O-Acetonitrile (1:1). The format is ADME. To be noted: reduced glutathione solution in H2O-acetonitrile (1:1).
A short description of data set [5]: Half life at 10 uM in the presence of 100 uM reduced glutathione in H2O-Acetonitrile (1:1). The format is ADME. To be noted: reduced glutathione solution in H2O-acetonitrile (1:1).
In data set [6] the target is T1, Vascular endothelial growth factor receptor 2. Nature of the data set: Inhibitory activity against VEGF stimulated autophosphorylation of VEGFR2 expressed in KDR15 cells. The format is cell-based.

T1 sequence (P35968 whole entry): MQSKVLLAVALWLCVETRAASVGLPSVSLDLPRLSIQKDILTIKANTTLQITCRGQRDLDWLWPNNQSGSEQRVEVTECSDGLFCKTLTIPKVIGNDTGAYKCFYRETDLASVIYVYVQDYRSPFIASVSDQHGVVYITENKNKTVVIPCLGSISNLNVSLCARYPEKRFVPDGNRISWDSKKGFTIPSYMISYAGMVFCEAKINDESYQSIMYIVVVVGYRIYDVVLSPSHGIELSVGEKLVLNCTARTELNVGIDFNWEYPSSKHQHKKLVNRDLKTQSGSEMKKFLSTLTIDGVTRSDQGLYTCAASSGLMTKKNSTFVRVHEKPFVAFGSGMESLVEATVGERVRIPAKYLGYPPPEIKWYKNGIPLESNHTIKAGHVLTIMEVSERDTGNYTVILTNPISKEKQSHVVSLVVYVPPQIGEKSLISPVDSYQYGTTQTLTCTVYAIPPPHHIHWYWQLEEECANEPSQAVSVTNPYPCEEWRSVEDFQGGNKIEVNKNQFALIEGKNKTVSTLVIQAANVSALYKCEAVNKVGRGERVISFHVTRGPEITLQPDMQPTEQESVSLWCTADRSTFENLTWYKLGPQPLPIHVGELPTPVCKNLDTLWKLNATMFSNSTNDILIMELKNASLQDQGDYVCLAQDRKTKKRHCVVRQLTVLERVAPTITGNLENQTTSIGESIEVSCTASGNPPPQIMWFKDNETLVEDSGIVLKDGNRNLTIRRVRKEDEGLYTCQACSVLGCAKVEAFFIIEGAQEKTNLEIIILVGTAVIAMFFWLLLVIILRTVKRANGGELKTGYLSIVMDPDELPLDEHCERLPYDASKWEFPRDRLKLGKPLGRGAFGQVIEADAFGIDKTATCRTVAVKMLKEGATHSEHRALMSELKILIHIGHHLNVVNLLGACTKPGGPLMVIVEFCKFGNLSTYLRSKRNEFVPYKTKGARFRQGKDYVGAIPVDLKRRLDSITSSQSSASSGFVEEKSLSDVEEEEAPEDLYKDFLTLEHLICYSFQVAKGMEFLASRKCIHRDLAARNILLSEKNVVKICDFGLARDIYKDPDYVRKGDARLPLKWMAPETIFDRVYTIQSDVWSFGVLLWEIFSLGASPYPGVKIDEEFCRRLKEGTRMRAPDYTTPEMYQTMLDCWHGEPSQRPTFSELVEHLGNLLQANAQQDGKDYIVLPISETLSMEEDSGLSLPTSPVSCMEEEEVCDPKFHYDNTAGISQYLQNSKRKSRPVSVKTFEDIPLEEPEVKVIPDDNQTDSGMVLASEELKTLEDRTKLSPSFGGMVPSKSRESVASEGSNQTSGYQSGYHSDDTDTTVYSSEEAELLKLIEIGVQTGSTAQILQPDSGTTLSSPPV

Take `COCCOc1cc2ncnc(NC3=C(Sc4ccccn4)C(=O)C=C(OC)C3=O)c2cc1OC`: the half-maximal inhibitory concentration (IC50) in data set [1], in data set [2] and in data set [3] was more than 1000 nM each time.

With `COCCOc1cc2ncnc(NC3=CC(=O)C(N4CCN(Cc5ccccc5)CC4)=CC3=O)c2cc1OC`, the half-life at 1 µM in data set [4] is 73 h. Besides, the half-life at 10 µM in data set [5] is 85 h.

For the compound `COCCOc1cc2ncnc(NC3=CC(=O)C(OC(C)C)=CC3=O)c2cc1OC`, in data set [4], the half-life at 1 µM was 213 h. Besides, the half-life at 10 µM in data set [5] was 227 h.

Regarding `COCCOc1cc2ncnc(NC3=CC(=O)C(OC)=C(Cl)C3=O)c2cc1OC`, in data set [4], the half-life at 1 µM was less than 0.5 h. Further, the half-life at 10 µM in data set [5] is 0.5 h.

With `COCCOc1cc2ncnc(NC3=CC(=O)C(Cl)=CC3=O)c2cc1OC`, the half-life at 1 µM in data set [4] was less than 0.02 h. Also, the half-life at 10 µM in data set [5] is less than 0.02 h.

For the compound `COCCOc1cc2ncnc(NC3=CC(=O)C(NCC(C)O)=CC3=O)c2cc1OC` (configuration not stated), the half-maximal inhibitory concentration (IC50) in data set [1], in data set [2] and in data set [3] was more than 1000 nM each time.

`COCCOc1cc2ncnc(NC3=CC(=O)C(N(C)c4ccccc4)=CC3=O)c2cc1OC`: the half-life at 1 µM in data set [4] is 341 h. Moreover, the half-life at 10 µM in data set [5] was 295 h.

`COCCOc1cc2ncnc(NC3=CC(=O)C(SC)=CC3=O)c2cc1OC`: the half-life at 1 µM in data set [4] is 2 h. For the same compound, in data set [5], the half-life at 10 µM was 3 h.

Consider `CCOC1=CC(=O)C(Nc2ncnc3cc(OCCOC)c(OC)cc23)=CC1=O`, for which the IC50 in data set [6], in data set [1], in data set [2] and in data set [3] was more than 1000 nM throughout. In addition, in data set [4], the half-life at 1 µM is 62 h. For the same compound, the half-life at 10 µM in data set [5] was 72 h.

For `COCCOc1cc2ncnc(NC3=CC(=O)C(OC)=CC3=O)c2cc1OC`, the half-life at 1 µM in data set [4] is 68 h. Besides, the half-life at 10 µM in data set [5] was 80 h.

`COCCOc1cc2ncnc(NC3=CC(=O)C(OCc4ccccc4)=CC3=O)c2cc1OC`: in data set [4], the half-life at 1 µM is 55 h. Further, the half-inhibitory concentration (IC50) turned out to be 366 nM in data set [1], 50.3 nM in data set [2] and 43 nM in data set [3]. In data set [5], the half-life at 10 µM is 54 h.

As for `COCCOc1cc2ncnc(NC3=CC(=O)C(Oc4ccc(-n5ccnc5)cc4)=CC3=O)c2cc1OC`, the half-life at 1 µM in data set [4] is less than 0.02 h. Also, in data set [5], the half-life at 10 µM was less than 0.02 h.

`COCCOc1cc2ncnc(NC3=CC(=O)C(N(C)C)=CC3=O)c2cc1OC`: in data set [4], the half-life at 1 µM is 160 h. In addition, in data set [5], the half-life at 10 µM was 601 h.

Take `COCCOc1cc2ncnc(NC3=CC(=O)C(OCc4cccc(F)c4)=CC3=O)c2cc1OC`: the figures for the IC50 in data set [1], in data set [2] and in data set [3] were 256 nM, 41.9 nM and 31.2 nM, respectively.

Consider `COCCOc1cc2ncnc(NC3=CC(=O)C(Oc4ccccc4)=CC3=O)c2cc1OC`, for which the half-life at 1 µM in data set [4] is less than 0.02 h. Further, the half-life at 10 µM in data set [5] is less than 0.02 h.

As for `COCCOc1cc2ncnc(NC3=CC(=O)C(OC(CF)CF)=CC3=O)c2cc1OC`, the half-life at 1 µM in data set [4] was 11 h. Also, in data set [5], the half-life at 10 µM was 15 h.

The values above are taken from ChEMBL document CHEMBL1141211, “2-(Quinazolin-4-ylamino)-[1,4]benzoquinones as covalent-binding, irreversible inhibitors of the kinase domain of vascular endothelial growth factor receptor-2” (J Med Chem, 2005).
